Reference: publication doi:10.1101/2022.12.16.520736v1 (biorxiv, 2022)
Like-named read-outs stand apart in the source and are kept apart here.

Test system: CK2 activity in cell extracts
Conditions: then lysed

CC(C)COC(=O)c1[nH]c2ccc(F)cc2c1-c1cn(CC2CCN(CCNS(=O)(=O)c3ccc(CC(C)C)cc3)CC2)nn1 [AB668]
IC50 (786-O cells treated with the inhibitor): 340 ± 70 nM
IC50 (HEK293 cells treated with the inhibitor): 600 ± 110 nM
